Data reported in US10011607B2, “Ethynyl derivatives” (Hoffmann-La Roche Inc., priority 2015, dated 2018).

Target: human mGlu4 receptor (Homo sapiens (Human), UniProt Q14833)
Test: Ca2+ mobilization in vitro assay on recombinant human mGlu4 expressed in HEK293 cells (PAM)
Assay type: cell-based
Conditions: for Emax: HEK293, maximal response in % of maximal stimulatory effect of saturating L-AP4, read-out: Eff. (%); for EC50: HEK293 cells, human mGlu4, in presence of EC20 of L-AP4, read-out: EC50 (nM) mGlu4PAM
Method in brief: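 HEK293 cells stably expressing human mGlu4 at low level, Fluo-4AM loaded; compound (11 half-log dilutions) pre-incubated 10–30 min at 37 °C, then L-AP4 added at EC20 (determined daily). Peak fluorescence minus basal, normalized to saturating L-AP4; EC50, Hill slope and % Emax from four-parameter fit.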

Sequence of human mGlu4 receptor (Q14833 33-912): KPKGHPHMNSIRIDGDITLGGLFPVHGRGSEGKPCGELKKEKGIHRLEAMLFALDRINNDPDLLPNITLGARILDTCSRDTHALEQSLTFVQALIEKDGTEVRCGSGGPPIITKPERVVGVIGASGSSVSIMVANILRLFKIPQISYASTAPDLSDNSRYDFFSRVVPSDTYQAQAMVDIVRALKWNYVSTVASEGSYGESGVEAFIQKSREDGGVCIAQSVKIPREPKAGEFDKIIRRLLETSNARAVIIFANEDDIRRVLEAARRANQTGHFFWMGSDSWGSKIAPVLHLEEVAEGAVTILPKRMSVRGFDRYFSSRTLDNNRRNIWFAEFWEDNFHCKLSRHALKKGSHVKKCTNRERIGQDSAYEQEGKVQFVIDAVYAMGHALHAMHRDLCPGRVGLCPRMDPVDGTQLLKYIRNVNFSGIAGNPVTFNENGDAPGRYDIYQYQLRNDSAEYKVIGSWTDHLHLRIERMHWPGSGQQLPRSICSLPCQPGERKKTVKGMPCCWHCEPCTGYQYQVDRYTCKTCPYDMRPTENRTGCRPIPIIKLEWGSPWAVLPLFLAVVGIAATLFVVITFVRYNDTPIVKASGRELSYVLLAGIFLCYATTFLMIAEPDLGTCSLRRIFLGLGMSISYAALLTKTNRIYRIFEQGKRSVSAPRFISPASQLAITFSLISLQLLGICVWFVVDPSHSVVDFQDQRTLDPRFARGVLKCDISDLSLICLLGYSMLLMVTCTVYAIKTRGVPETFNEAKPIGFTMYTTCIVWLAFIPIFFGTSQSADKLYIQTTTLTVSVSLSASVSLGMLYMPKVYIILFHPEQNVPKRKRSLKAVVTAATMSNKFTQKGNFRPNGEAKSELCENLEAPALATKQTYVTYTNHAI

SMILES	Emax	EC50
C[C@@]12CC(=O)N(c3c(F)cc(C#Cc4ccccc4)cc3F)C(=O)N1CCN(c1cccnc1)C2=O [Example 7, (9aS)-7-[2,6-difluoro-4-(2-phenylethynyl)phenyl]-9a-methyl-2-(3-pyridyl)-4,9-dihydro-3H-pyrazino[1,2-c]pyrimidine-1,6,8-trione]	126%	73 nM
CC12CC(=O)N(c3c(F)cc(C#Cc4ccccc4)cc3Cl)C(=O)N1CCN(c1ccccn1)C2=O (racemic) [Example 76, (9aRS)-7-[2-chloro-6-fluoro-4-(2-phenylethynyl)phenyl]-9a-methyl-2-(2-pyridyl)-4,9-dihydro-3H-pyrazino[1,2-c]pyrimidine-1,6,8-trione]	150%	128 nM
Cc1csc(N2CCN3C(=O)N(c4c(F)cc(C#Cc5ccccc5)cc4F)C(=O)CC3(C)C2=O)n1 (racemic) [Example 54, (9aRS)-7-[2,6-difluoro-4-(2-phenylethynyl)phenyl]-9a-methyl-2-(4-methylthiazol-2-yl)-4,9-dihydro-3H-pyrazino[1,2-c]pyrimidine-1,6,8-trione]	97%	48 nM
Cn1cc(N2CCN3C(=O)N(c4c(F)cc(C#Cc5ccccc5)cc4Cl)C(=O)CC3(C)C2=O)cn1 (racemic) [Example 77, (9aRS)-7-[2-chloro-6-fluoro-4-(2-phenylethynyl)phenyl]-9a-methyl-2-(1-methylpyrazol-4-yl)-4,9-dihydro-3H-pyrazino[1,2-c]pyrimidine-1,6,8-trione]	111%	104 nM
C[C@@]12CC(=O)N(c3c(F)cc(C#Cc4ccccc4)cc3F)C(=O)N1CCN(Cc1cccc(F)c1)C2=O [Example 90, (9aS)-7-[2,6-difluoro-4-(2-phenylethynyl)phenyl]-2-[(3-fluorophenyl)methyl]-9a-methyl-4,9-dihydro-3H-pyrazino[1,2-c]pyrimidine-1,6,8-trione]	109%	187 nM
CC[C@@]12CC(=O)N(c3c(F)cc(C#Cc4ccccc4)cc3F)C(=O)N1CCN(c1cnn(C)c1)C2=O [Example 107, (9aS)-7-[2,6-difluoro-4-(2-phenylethynyl)phenyl]-9a-ethyl-2-(1-methylpyrazol-4-yl)-4,9-dihydro-3H-pyrazino[1,2-c]pyrimidine-1,6,8-trione]	125%	104 nM
CC12CC(=O)N(c3c(F)cc(C#Cc4ccccc4)cc3F)C(=O)N1CCN(c1cncnc1)C2=O (racemic) [Example 28, (9aRS)-7-[2,6-difluoro-4-(2-phenylethynyl)phenyl]-9a-methyl-2-pyrimidin-5-yl-4,9-dihydro-3H-pyrazino[1,2-c]pyrimidine-1,6,8-trione]	120%	145 nM
CC12CC(=O)N(c3c(F)cc(C#Cc4ccccc4)cc3F)C(=O)N1CCN(Cc1cccnc1)C2=O (racemic) [Example 93, (9aRS)-7-[2,6-difluoro-4-(2-phenylethynyl)phenyl]-9a-methyl-2-(3-pyridylmethyl)-4,9-dihydro-3H-pyrazino[1,2-c]pyrimidine-1,6,8-trione]	90%	217 nM
COCC12CC(=O)N(c3c(F)cc(C#Cc4ccccc4)cc3F)C(=O)N1CCN(c1cccnc1)C2=O (racemic) [Example 102, (9aRS)-7-[2,6-difluoro-4-(2-phenylethynyl)phenyl]-9a-(methoxymethyl)-2-(3-pyridyl)-4,9-dihydro-3H-pyrazino[1,2-c]pyrimidine-1,6,8-trione]	136%	129 nM
C[C@@]12CC(=O)N(c3c(F)cc(C#Cc4ccccc4)cc3F)C(=O)N1CCN(CCn1ccnc1)C2=O [Example 98, (9aS)-7-[2,6-difluoro-4-(2-phenylethynyl)phenyl]-2-(2-imidazol-1-ylethyl)-9a-methyl-4,9-dihydro-3H-pyrazino[1,2-c]pyrimidine-1,6,8-trione]	135%	283 nM
Cc1nc(N2CCN3C(=O)N(c4c(F)cc(C#Cc5ccccc5)cc4F)C(=O)CC3(C)C2=O)cn1C (racemic) [Example 60, (9aRS)-7-[2,6-difluoro-4-(2-phenylethynyl)phenyl]-2-(1,2-dimethylimidazol-4-yl)-9a-methyl-4,9-dihydro-3H-pyrazino[1,2-c]pyrimidine-1,6,8-trione]	137%	145 nM
CC12CC(=O)N(c3c(F)cc(C#Cc4ccccc4)cc3F)C(=O)N1CCN(Cc1cccc(Cl)c1)C2=O (racemic) [Example 88, (9aRS)-2-[(3-chlorophenyl)methyl]-7-[2,6-difluoro-4-(2-phenylethynyl)phenyl]-9a-methyl-4,9-dihydro-3H-pyrazino[1,2-c]pyrimidine-1,6,8-trione]	134%	73 nM
C[C@@]12CC(=O)N(c3c(F)cc(C#Cc4ccccc4)cc3F)C(=O)N1CCN(Cc1ccccc1F)C2=O [Example 89, (9aS)-7-[2,6-difluoro-4-(2-phenylethynyl)phenyl]-2-[(2-fluorophenyl)methyl]-9a-methyl-4,9-dihydro-3H-pyrazino[1,2-c]pyrimidine-1,6,8-trione]	98%	149 nM
Cn1nccc1CN1CCN2C(=O)N(c3c(F)cc(C#Cc4ccccc4)cc3F)C(=O)C[C@@]2(C)C1=O [Example 97, (9aS)-7-[2,6-difluoro-4-(2-phenylethynyl)phenyl]-9a-methyl-2-[(2-methylpyrazol-3-yl)methyl]-4,9-dihydro-3H-pyrazino[1,2-c]pyrimidine-1,6,8-trione]	128%	76 nM
Cc1cc(N2CCN3C(=O)N(c4c(F)cc(C#Cc5ccccc5)cc4F)C(=O)C[C@@]3(C)C2=O)ncn1 [Example 35, (9aS)-7-[2,6-difluoro-4-(2-phenylethynyl)phenyl]-9a-methyl-2-(6-methylpyrimidin-4-yl)-4,9-dihydro-3H-pyrazino[1,2-c]pyrimidine-1,6,8-trione]	121%	91 nM
CC12CC(=O)N(c3c(F)cc(C#Cc4ccccc4)cc3Cl)C(=O)N1CCN(c1cccnc1)C2=O (racemic) [Example 74, (9aRS)-7-[2-chloro-6-fluoro-4-(2-phenylethynyl)phenyl]-9a-methyl-2-(3-pyridyl)-4,9-dihydro-3H-pyrazino[1,2-c]pyrimidine-1,6,8-trione]	120%	102 nM
COc1ncc(N2CCN3C(=O)N(c4c(F)cc(C#Cc5ccccc5)cc4F)C(=O)C[C@@]3(C)C2=O)cn1 [Example 37, (9aS)-7-[2,6-difluoro-4-(2-phenylethynyl)phenyl]-2-(2-methoxypyrimidin-5-yl)-9a-methyl-4,9-dihydro-3H-pyrazino[1,2-c]pyrimidine-1,6,8-trione]	90%	55 nM
C[C@@]12CC(=O)N(c3c(F)cc(C#Cc4ccccc4)cc3F)C(=O)N1CCN(c1ccccn1)C2=O [Example 5, (9aS)-7-[2,6-difluoro-4-(2-phenylethynyl)phenyl]-9a-methyl-2-(2-pyridyl)-4,9-dihydro-3H-pyrazino[1,2-c]pyrimidine-1,6,8-trione]	92%	46 nM
C[C@@]12CC(=O)N(c3c(F)cc(C#Cc4ccccc4)cc3F)C(=O)N1CCN(CC(F)(F)F)C2=O [Example 81, (9aS)-7-[2,6-difluoro-4-(2-phenylethynyl)phenyl]-9a-methyl-2-(2,2,2-trifluoroethyl)-4,9-dihydro-3H-pyrazino[1,2-c]pyrimidine-1,6,8-trione]	172%	112 nM
Cc1ccnc(N2CCN3C(=O)N(c4c(F)cc(C#Cc5ccccc5)cc4F)C(=O)CC3(C)C2=O)c1 (racemic) [Example 12, (9aRS)-7-(2,6-difluoro-4-(phenylethynyl)phenyl)-9a-methyl-2-(4-methylpyridin-2-yl)tetrahydro-1H-pyrazino[1,2-c]pyrimidine-1,6,8(2H,7H)-trione]	126%	131 nM
C[C@@]12CC(=O)N(c3c(F)cc(C#Cc4ccccc4)cc3F)C(=O)N1CCN(c1cnc(O)nc1)C2=O [Example 42, (9aS)-7-[2,6-difluoro-4-(2-phenylethynyl)phenyl]-2-(2-hydroxypyrimidin-5-yl)-9a-methyl-4,9-dihydro-3H-pyrazino[1,2-c]pyrimidine-1,6,8-trione]	129%	73 nM
CCn1cc(N2CCN3C(=O)N(c4c(F)cc(C#Cc5ccccc5)cc4F)C(=O)C[C@@]3(C)C2=O)cn1 [Example 69, (9aS)-7-[2,6-difluoro-4-(2-phenylethynyl)phenyl]-2-(1-ethylpyrazol-4-yl)-9a-methyl-4,9-dihydro-3H-pyrazino[1,2-c]pyrimidine-1,6,8-trione]	184%	151 nM
Cc1nc(N2CCN3C(=O)N(c4c(F)cc(C#Cc5ccccc5)cc4F)C(=O)C[C@@]3(C)C2=O)cn1CC(F)(F)F [Example 61, (9aS)-7-[2,6-difluoro-4-(2-phenylethynyl)phenyl]-9a-methyl-2-[2-methyl-1-(2,2,2-trifluoroethyl)imidazol-4-yl]-4,9-dihydro-3H-pyrazino[1,2-c]pyrimidine-1,6,8-trione]	172%	272 nM
CC(C)n1cc(N2CCN3C(=O)N(c4c(F)cc(C#Cc5ccccc5)cc4F)C(=O)C[C@@]3(C)C2=O)cn1 [Example 70, (9aS)-7-[2,6-difluoro-4-(2-phenylethynyl)phenyl]-2-(1-isopropylpyrazol-4-yl)-9a-methyl-4,9-dihydro-3H-pyrazino[1,2-c]pyrimidine-1,6,8-trione]	150%	139 nM
C[C@@]12CC(=O)N(c3c(F)cc(C#Cc4ccccc4)cc3F)C(=O)N1CCN(c1cnc(OC3CC3)nc1)C2=O [Example 43, (9aS)-2-[2-(cyclopropoxy)pyrimidin-5-yl]-7-[2,6-difluoro-4-(2-phenylethynyl)phenyl]-9a-methyl-4,9-dihydro-3H-pyrazino[1,2-c]pyrimidine-1,6,8-trione]	153%	171 nM
